Results taken from patent US20230158034A1, “CO-TREATMENT WITH CDK4/6 AND CDK2 INHIBITORS TO SUPPRESS TUMOR ADAPTATION TO CDK2 INHIBITORS” (Pfizer Inc., priority 2020, published 2023).

Legend:
[1] = test system: Rb, Nucleolin, Cdc6 and Nbs1 phosphorylation; assay: Immunofluorescence and western blotting of endogenous CDK2 substrates; type: cell-based, human; conditions: for Rb phosphorylation: 1 hr palbociclib treatment
Experimental: Cells were fixed for 15 minutes with freshly prepared 4% paraformaldehyde, washed twice with PBS, and incubated with a blocking buffer (3% BSA in PBS) for 1 hr at room temperature. Permeabilization was carried out using 0.2% Triton-X 100 for 15 min at 4° C. Primary antibody was diluted in blocking buffer and incubated with cells overnight at 4° C. followed by three washes with 1×PBS. Secondary antibodies conjugated to Alexa Fluor 488, Alexa Fluor 546 or Alexa Fluor 647 were incubated for 1 hr followed by three washes with 1×PBS. DNA was stained using Hoechst 33342 dye for 10 minutes at 1:10000 (ThermoFisher H3570). Images were acquired on a Nikon Eclipse Ti or Ti2 microscope with a 10×0.45 NA objective. DNA content was determined by taking the integrated intensity of each cell's Hoechst signal. Cells were delineated as 3-4N DNA content by plotting a histogram of DNA content and drawing a threshold and the end of the 2N peak.
Lysates were prepared using 1×LDS sample buffer (ThermoFisher NP007) using equal numbers of cells. Proteins were separated using NuPAGE precast polyacrylamide gels (ThermoFisher NP0301). Total protein was quantified using Azure Red Dye (Azure Biosystems AC2124) and was used to normalize the signal from antibodies of interest. Primary antibodies used are specified under the “Antibodies” section. HRP-conjugated or IR700 and IR800 labeled fluorescent secondary antibodies were used for visualization (Cell Signaling Technology 7074 and 7076).

[2] = test system: MCF10A, RPE-hTERT, MCF7 and OVCAR3 cells; assay: Cell-cycle progression, mitosis and proliferation by time-lapse imaging; type: cell-based, human
Text: The DHB sensor is localized to the nucleus when it is not phosphorylated. Upon phosphorylation, the nuclear localization signal is masked, the nuclear export signal is unmasked, and the sensor steadily translocates to the cytoplasm in response to increasing CDK2 activity (FIG. 1A). Thus, kinase activity can be quantified by the ratio of the cytoplasmic to nuclear fluorescence intensity (C/N ratio) of the DHB sensor. […] Asynchronously cycling cells were first imaged for approximately 20 hr in the absence of drug to establish the cell-cycle phase of each cell; the movie was then paused to add drug, and then imaging was continued for another 1-2 days. Because the cells were cycling asynchronously, all cell-cycle phases with one drug treatment were sampled. This allowed the present inventors to computationally isolate traces for cells that received drug at any time since the completion of anaphase.
Cells were seeded at least 24 hr prior to imaging in phenol-red-free full-growth medium in glass-bottom 96-well plates (CellVis P96-1.5H-N) that were coated with collagen prior to seeding. The seeding density was chosen such that the cells would remain sub-confluent until the end of the imaging period. Cells were first imaged for 16-20 hr in full-growth media without drug. The movie was then briefly paused and the full-growth media was replaced with full-growth media containing drug at the desired concentration. The plate was then re-inserted into the microscope and aligned to its prior position and imaging was continued for an additional 24-48 hr. Images were acquired every 12 min (for MCF10A or RPE-hTERT) or every 20 min (for MCF7 or OVCAR3) on a Nikon Eclipse Ti or Ti2 microscope with a 10×0.45 NA objective in a humidified, 37° C. chamber at 5% CO2. Exposure times for all movies for all channels were kept under 500 ms per timepoint to minimize phototoxicity. Cell tracking was performed using published MATLAB scripts (Cappell et al., 2016), as described previously (Arora et al., 2017). The tracking code is available for download at https://github.com/scappell/Cell_tracking. Cell counts over time were obtained by counting the number of segmented nuclei in each frame of the movie.

[3] = test system: CDK2 T-loop phosphorylation, Cyclin E1, p21; assay: Western blots of palbociclib-treated lung tumors; type: in vivo, mouse; conditions: palbociclib 70 mg/kg QD for 28 days
Experimental: To test the potential compensatory relationship between CDK2 and CDK4/6 in vivo, an established mouse lung tumor model driven by KRAS^G12V and TRP53 mutations was used. Kras^+/LSLG12V, Trp53^L/L mice intra-nasally infected with adenoviral particles encoding Cre recombinase developed lung tumors with a latency of 5 months. Once tumor development was detected by CT scans, animals were treated with either vehicle or palbociclib (70 mg/kg QD) for 28 days and tumor volumes were subsequently measured by CT scans at the end of the treatment period.
For western blots in FIG. 7B, protein extraction was performed in protein lysis buffer (50 mM Tris-HCl pH 7.4, 150 mM NaCl, 0.5% NP-40) supplemented with a cocktail of protease and phosphatase inhibitors (complete Mini, Roche, 11836153001; Phosphatase Inhibitor Cocktail 2 and 3, Sigma, P5726 and P0044). Protein concentrations were measured using Bradford (Bio-Rad) method. […] of protein extracts obtained from tumor tissue were separated on NUPAGE™ 4-12% Bis-Tris Midi gels (Invitrogen), transferred to a nitrocellulose membrane (GE Healthcare) and blotted with primary antibodies. Primary antibodies were detected with goat secondary antibodies directed against mouse or rabbit IgGs (HRP, Dako, and Alexa Fluor 680, Invitrogen) and visualized with ECL Western Blot detection solution (GE Healthcare).

[4] = PF3600, MCF10A, MCF7 and RPE-hTERT cells

Row | SMILES | Rb and Nucleolin phosphorylation by immunofluorescence ([1]; 100 nM PF3600, MCF10A cells with 3-4N DNA content) | cell proliferation and mitoses ([2]; 25 nM PF3600, OVCAR3 cells, remainder of the imaging period) | mitosis ([2]; 100 nM PF3600, MCF7) | cell-cycle progression and mitosis after PF3600 [2, 4] | intermitotic times [2, 4] | Rb phosphorylation ([1]; cells with 2N DNA content) | Rb phosphorylation ([1]; cells with 3-4N DNA content) | cell-cycle arrest ([2]; 1 μM palbociclib (after the upcoming mitosis) or 9 μM RO3306 (toward end of cell cycle), MCF10A) | sensitivity to palbociclib ([2]; MCF10A, MCF7 and RPE-hTERT cells) | sensitivity to palbociclib ([2]; OVCAR3 cells (amplification of cyclin E)) | CDK2 T-loop phosphorylation and Cyclin E1 in tumors (western blot) [3] | p21 in tumors (western blot) [3]
1 | C[C@@]1(O)CCC[C@H]1n1c(=O)c(C(F)F)cc2cnc(NC3CCN(S(C)(=O)=O)CC3)nc21 [PF3600, 6-(difluoromethyl)-8-[(1R,2R)-2-hydroxy-2-methylcyclopentyl]-2-{[1-(methylsulfonyl)-piperidin-4-yl]amino}pyrido[2,3-d]pyrimidin-7(8H)-one] | transient reduction in Rb and Nucleolin phosphorylation followed by a rebound | inhibited cell proliferation and prevented all further mitoses | blocked mitosis | cell-cycle progression continued, and cells eventually completed mitosis | longer intermitotic times |  |  |  |  |  |  | 
2 | CC(=O)c1c(C)c2cnc(Nc3ccc(N4CCNCC4)cn3)nc2n(C2CCCC2)c1=O [palbociclib] |  |  |  |  |  | dephosphorylation of Rb | no effect | CDK2^low G0 arrest | palbociclib-sensitive | resistant | upregulation of CDK2 T-loop phosphorylation and Cyclin E1 | significant downregulation of the CDK inhibitor p21
